Tests used:
[1] = Oral bioavailability in rat; assay type: ADME, organism-based; settings: in vivo
[2] = in vivo; settings: rat, plasma, po
[3] = in vivo; settings: rat, plasma, po, 10 mg/kg
[4] = in vivo; settings: rat, plasma, po; remark: listed apart in the source
[5] = in vivo; settings: rat, plasma, iv

Row | Compound | bioavailability [1] [%] | AUC [2] [ng·h/mL] | Cmax [3] [nM] | Tmax [4] [min] | half-life [5] [min]
1 | CC(C)c1nc(COC(=O)NC(C(=O)N[C@@H](Cc2ccccc2)C[C@H](O)[C@H](Cc2ccccc2)NC(=O)OCc2cccnc2)C(C)C)co1 (stereo not given in full) | 5 | 200 | 460 | 12 | 19.8
2 | Cc1ncc(COC(=O)N[C@@H](Cc2ccccc2)[C@@H](O)C[C@H](Cc2ccccc2)NC(=O)C(NC(=O)N(C)Cc2csc(C(C)C)n2)C(C)C)s1 (stereo not given in full) | 23 | 910 | 650 | 72 | 26.4
3 | CC(C)c1nc(CN(C)C(=O)NC(C(=O)N[C@@H](Cc2ccccc2)C[C@H](O)[C@H](Cc2ccccc2)NC(=O)OCc2ccno2)C(C)C)co1 (stereo not given in full) | 3.8 | 180 | 490 | 6 | 24
4 | CC(NC(=O)N(C)Cc1coc(C(C)C)n1)C(=O)N[C@@H](Cc1ccccc1)C[C@H](O)[C@H](Cc1ccccc1)NC(=O)OCc1cncs1 (stereo not given in full) | 23 | 2860 | 3600 | 15 | 240
5 | CCc1nc(CN(C)C(=O)NC(C(=O)N[C@@H](Cc2ccccc2)C[C@H](O)[C@H](Cc2ccccc2)NC(=O)OCc2cncs2)C(C)C)cs1 (stereo not given in full) | 70 | 14200 | 6170 | 72 | 48
6 | CC(C)c1nc(CN(C)C(=O)NC(C(=O)N[C@@H](Cc2ccccc2)C[C@H](O)[C@H](Cc2ccccc2)NC(=O)OCc2ccno2)C(C)C)cs1 (stereo not given in full) | 7.7 | 270 | 370 | 12 | 35.4

Further lines, results first:

Row | bioavailability [1] [%] | AUC [2] [ng·h/mL] | Cmax [3] [nM] | Tmax [4] [min] | half-life [5] [min] | Compound
7 | 9.3 | 510 | 830 | 19.8 | 21.6 | CC(C)C(NC(=O)N(C)Cc1csc(C(C)(C)C)n1)C(=O)N[C@@H](Cc1ccccc1)[C@@H](O)C[C@H](Cc1ccccc1)NC(=O)OCc1cccnc1 (stereo not given in full)
8 | 7.9 | 310 | 1830 | 6 | 19.2 | COc1ccc(CN(C)C(=O)NC(C(=O)N[C@@H](Cc2ccccc2)[C@@H](O)C[C@H](Cc2ccccc2)NC(=O)OCc2cccnc2)C(C)C)cn1 (stereo not given in full)
9 | 3.3 | 160 | 560 | 9 | 25.8 | COc1ccc(COC(=O)NC(C(=O)N[C@@H](Cc2ccccc2)[C@@H](O)C[C@H](Cc2ccccc2)NC(=O)OCc2cccnc2)C(C)C)cn1 (stereo not given in full)
10 | 0.5 | 20 | 200 | 6 | 43.2 | CC(C)C(NC(=O)OCc1cncc(N)c1)C(=O)N[C@@H](Cc1ccccc1)[C@@H](O)C[C@H](Cc1ccccc1)NC(=O)OCc1cccnc1 (stereo not given in full)
11 | 5.9 | 210 | 480 | 18 | 16.8 | Cc1cncc(COC(=O)NC(C(=O)N[C@@H](Cc2ccccc2)[C@@H](O)C[C@H](Cc2ccccc2)NC(=O)OCc2cccnc2)C(C)C)c1 (stereo not given in full)
12 | 17 | 820 | 2170 | 9 | 36 | COc1ccc(CN(C)C(=O)NC(C(=O)N[C@@H](Cc2ccccc2)[C@@H](O)C[C@H](Cc2ccccc2)NC(=O)OCc2cccnc2)C(C)C)nc1 (stereo not given in full)
13 | 0.9 | 30 | 200 | 6 | 48 | COc1cncc(COC(=O)NC(C(=O)N[C@@H](Cc2ccccc2)C[C@H](O)[C@H](Cc2ccccc2)NC(=O)OCc2cccnc2)C(C)C)c1 (stereo not given in full)
14 | 26 | 1980 | 4110 | 15 | 114 | CC(C)C(NC(=O)OCc1ccccn1)C(=O)N[C@@H](Cc1ccccc1)[C@@H](O)C[C@H](Cc1ccccc1)NC(=O)OCc1cccnc1 (stereo not given in full)
15 | 2.1 | 60 | 310 | 12 | 21 | Cc1ccc(CN(C)C(=O)NC(C(=O)N[C@@H](Cc2ccccc2)C[C@H](O)[C@H](Cc2ccccc2)NC(=O)OCc2cccnc2)C(C)C)cn1 (stereo not given in full)
